Data set [1] in a line: Assessment of chemical stability (RP-HPLC normalized purity). It is filed as physicochemical. To be noted: 7 days, 40° C., Table 1; for Normalized purity after 7 days, 40° C., pH 4: pH 4, 0.2 mg/ml; for Normalized purity after 7 days, 40° C., pH 6: pH 6, 0.2 mg/ml; for Normalized purity after 7 days, 40° C., pH 7.5: pH 7.5, 0.2 mg/ml; for Normalized purity after 7 days, 40° C., pH 9: pH 9, 0.2 mg/ml. In outline:
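Peptides at 0.2 mg/ml in water adjusted to pH 4, 6, 7.5 or 9, incubated at 40° C for 7 days. Main-peak area-% by RP-HPLC (C8 ammonium formate or C18 TFA gradient, UV 220 nm), normalized to T=0 as 100.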

In data set [2] the target is T1, human calcitonin receptor (hCTR2) (Homo sapiens, UniProt P30988).
T1 construct: expressed in transfected cells
T1 sequence (P30988 25-474): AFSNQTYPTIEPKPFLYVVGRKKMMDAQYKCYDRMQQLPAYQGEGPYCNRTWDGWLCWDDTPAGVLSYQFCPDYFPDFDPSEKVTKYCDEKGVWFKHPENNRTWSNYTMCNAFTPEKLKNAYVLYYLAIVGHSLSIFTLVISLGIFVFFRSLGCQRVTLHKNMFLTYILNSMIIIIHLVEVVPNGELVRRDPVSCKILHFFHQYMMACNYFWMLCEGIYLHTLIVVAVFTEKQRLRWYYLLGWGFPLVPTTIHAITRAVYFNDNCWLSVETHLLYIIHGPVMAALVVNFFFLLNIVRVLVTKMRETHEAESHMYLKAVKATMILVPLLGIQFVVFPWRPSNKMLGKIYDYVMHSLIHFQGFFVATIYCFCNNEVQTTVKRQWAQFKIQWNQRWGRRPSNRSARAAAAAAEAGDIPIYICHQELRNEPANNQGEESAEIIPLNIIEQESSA
In words: hCTR2 cAMP assay (AlphaScreen) in COS7 cells. It is filed as cell-based. To be noted: cAMP induction, COS7 cells expressing hCTR2; Table 1; read-out: hCTR2 EC50. The essentials: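 Stable hCTR2 clone in RAMP-naïve COS7 cells stimulated 15 min at 37 °C with increasing peptide concentrations in Tyrode buffer pH 7.4 containing IBMX and 0.1% casein. cAMP in lysates measured by AlphaScreen; EC50 from 4-parameter logistic fit.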
A general note: Changes in cAMP serve as a functional read-out for many G protein-coupled receptors.

For data set [3], the target named is T2, human amylin receptor 3 (hAMYR3), hCTR2 co-expressed with hRAMP3 (Homo sapiens, UniProt O60896+P30988).
T2 construct: expressed in transfected cells
T2 sequence (P30988 25-474): T1 sequence (P30988 25-474)
T2 sequence (O60896 24-148 partner): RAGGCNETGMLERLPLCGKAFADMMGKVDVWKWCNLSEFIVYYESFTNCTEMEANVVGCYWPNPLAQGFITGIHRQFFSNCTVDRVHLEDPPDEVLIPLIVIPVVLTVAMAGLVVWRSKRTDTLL
In words: hAMYR3 cAMP assay (AlphaScreen) in COS7 cells. The format is cell-based. To be noted: cAMP induction, COS7 cells expressing hAMYR3; Table 1; read-out: hAMYR3 EC50. The essentials:
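Stable COS7 clone co-expressing hCTR2 and hRAMP3 was exposed to increasing peptide concentrations in Tyrode buffer (pH 7.4) with 100 µM IBMX and 0.1% casein for 15 min at 37 °C. Lysate cAMP was measured by AlphaScreen; EC50 came from 4-parameter logistic fitting.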

*1 amine or outer side, *2 acyl side, *3 side chain or, on linkers, in order; H or OH if unused. Where a SMILES comes first, the peptide text is derived from it. Bridges are numbered along the chain shown (N, C = ends). [ ]: non-standard residue; d: D form. The star is where a group is joined. C20 diacid = O=C(O)CCCCCCCCCCCCCCCCCCC(=O)*; γGlu = O=C(O)[C@H](CCC(=O)[*:2])N[*:1]; Hyp = O=C(O)[C@@H]1C[C@@H](O)CN1; NMeI = CC[C@H](C)[C@H](NC)C(=O)O; Aad = N[C@@H](CCCC(=O)O)C(=O)O; Sar = CNCC(=O)O

As usually defined, the EC50 is the concentration that produces a half-maximal response. On to `CC[C@H](C)[C@@H](C(=O)N[C@@H](CC(C)C)C(=O)N[C@@H](CO)C(=O)N[C@@H](CO)C(=O)N[C@H](C(=O)N[C@@H](CCC(=O)O)C(=O)N[C@H](C(=O)NCC(=O)N[C@@H](CO)C(=O)N[C@@H](CO)C(=O)N[C@H](C(=O)N1C[C@H](O)C[C@H]1C(N)=O)[C@@H](C)O)C(C)C)[C@@H](C)O)N(C)C(=O)[C@H](C)NC(=O)CN(C)C(=O)[C@H](Cc1ccccc1)NC(=O)[C@H](CO)NC(=O)[C@H](CO)NC(=O)[C@H](CCCNC(=N)N)NC(=O)[C@@H](NC(=O)[C@H](CC(C)C)NC(=O)[C@H](Cc1ccccc1)NC(=O)[C@H](CCCC(=O)O)NC(=O)[C@H](C)NC(=O)[C@H](CC(C)C)NC(=O)[C@H](CCCNC(=N)N)NC(=O)[C@H](CCC(=O)O)NC(=O)[C@@H](NC(=O)[C@H](C)NC(=O)[C@@H]1CSSC[C@H](NC(=O)[C@H](CCCNC(=N)N)NC(=O)CC[C@H](NC(=O)CCCCCCCCCCCCCCCCCCC(=O)O)C(=O)O)C(=O)NCC(=O)N[C@@H]([C@@H](C)O)C(=O)N[C@@H](C)C(=O)N[C@@H]([C@@H](C)O)C(=O)N1)[C@@H](C)O)[C@@H](C)O` [Compound 43, [19CD]-isoGlu-R-C( )-GTAT-C( )-ATERLA-Aad-FLTRSSF-Gly(Me)-A-Ile(Me)-LSSTEVGSST-Hyp-NH2] ({C20 diacid-γGlu}-RCGTATCATERLA[Aad]FLTRSSF[Sar]A[NMeI]LSSTEVGSST[Hyp]-NH2; disulfide 2-7), for which, in data set [1], the “Normalized purity after 7 days, 40° C., pH 4” value (“Normalized purity … pH 4” for short) is “A (A = >90%)”; the “Normalized purity after 7 days, 40° C., pH 6” value (“Normalized purity … pH 6” below) is “A (A = >90%)”; the “Normalized purity after 7 days, 40° C., pH 7.5” value (shortened to “Normalized purity … pH 7.5”) was “A (A = >90%)”; the “Normalized purity after 7 days, 40° C., pH 9” value (shortened to “Normalized purity … pH 9”) is given as “A (A = >90%)”. For the same compound, the EC50 in data set [2] came to 0.22 nM. Moreover, the EC50 in data set [3] is 0.35 nM.

As for `CC[C@H](C)[C@@H](C(=O)N[C@@H](CC(C)C)C(=O)N[C@@H](CO)C(=O)N[C@@H](CO)C(=O)N[C@H](C(=O)N[C@@H](CCC(=O)O)C(=O)N[C@H](C(=O)NCC(=O)N[C@@H](CO)C(=O)N[C@@H](CC(N)=O)C(=O)N[C@H](C(=O)N1C[C@H](O)C[C@H]1C(N)=O)[C@@H](C)O)C(C)C)[C@@H](C)O)N(C)C(=O)[C@H](C)NC(=O)CN(C)C(=O)[C@H](Cc1ccccc1)NC(=O)[C@H](CO)NC(=O)[C@H](CO)NC(=O)[C@H](CCCNC(=N)N)NC(=O)[C@H](CCC(N)=O)NC(=O)[C@H](CC(C)C)NC(=O)[C@H](Cc1ccccc1)NC(=O)[C@H](CCCC(=O)O)NC(=O)[C@H](C)NC(=O)[C@H](CC(C)C)NC(=O)[C@H](CCCNC(=N)N)NC(=O)[C@H](CCC(N)=O)NC(=O)[C@@H](NC(=O)[C@H](C)NC(=O)[C@@H]1CSSC[C@H](NC(=O)[C@H](CCCNC(=N)N)NC(=O)CC[C@H](NC(=O)CCCCCCCCCCCCCCCCCCC(=O)O)C(=O)O)C(=O)N[C@@H](CC(N)=O)C(=O)N[C@@H]([C@@H](C)O)C(=O)N[C@@H](C)C(=O)N[C@@H]([C@@H](C)O)C(=O)N1)[C@@H](C)O` [Compound 86, [19CD]-isoGlu-R-C( )-NTAT-C( )-ATQRLA-Aad-FLQRSSF-Gly(Me)-A-Ile(Me)-LSSTEVGSNT-Hyp-NH2] ({C20 diacid-γGlu}-RCNTATCATQRLA[Aad]FLQRSSF[Sar]A[NMeI]LSSTEVGSNT[Hyp]-NH2; disulfide 2-7), in data set [1], the “Normalized purity … pH 4” value is recorded as “A (A = >90%)”; the “Normalized purity … pH 6” value is “A (A = >90%)”; the “Normalized purity … pH 7.5” value was “A (A = >90%)”; the “Normalized purity … pH 9” value is given as “A (A = >90%)”. For the same compound, the EC50 in data set [2] is 0.1 nM. Moreover, the EC50 in data set [3] was 0.15 nM.

Take `CC[C@H](C)[C@@H](C(=O)N[C@@H](CC(C)C)C(=O)N[C@@H](CO)C(=O)N[C@@H](CO)C(=O)N[C@H](C(=O)N[C@@H](CCC(=O)O)C(=O)N[C@H](C(=O)NCC(=O)N[C@@H](CO)C(=O)NCC(=O)N[C@H](C(=O)N1CCC[C@H]1C(N)=O)[C@@H](C)O)C(C)C)[C@@H](C)O)N(C)C(=O)[C@H](C)NC(=O)CN(C)C(=O)[C@H](Cc1ccccc1)NC(=O)[C@H](CO)NC(=O)[C@H](CO)NC(=O)[C@H](CCCNC(=N)N)NC(=O)[C@H](CCC(N)=O)NC(=O)[C@H](CC(C)C)NC(=O)[C@H](Cc1ccccc1)NC(=O)[C@H](CC(=O)O)NC(=O)[C@H](C)NC(=O)[C@H](CC(C)C)NC(=O)[C@H](CCCNC(=N)N)NC(=O)[C@H](CCC(N)=O)NC(=O)[C@@H](NC(=O)[C@H](C)NC(=O)[C@@H]1CSSC[C@H](NC(=O)[C@H](CCCNC(=N)N)NC(=O)CC[C@H](NC(=O)CCCCCCCCCCCCCCCCCCC(=O)O)C(=O)O)C(=O)N[C@@H](CC(N)=O)C(=O)N[C@@H]([C@@H](C)O)C(=O)N[C@@H](C)C(=O)N[C@@H]([C@@H](C)O)C(=O)N1)[C@@H](C)O` [Compound 80, [19CD]-isoGlu-R-C( )-NTAT-C( )-ATQRLADFLQRSSF-Gly(Me)-A-Ile(Me)-LSSTEVGSGTP-NH2] ({C20 diacid-γGlu}-RCNTATCATQRLADFLQRSSF[Sar]A[NMeI]LSSTEVGSGTP-NH2; disulfide 2-7): in data set [1], the “Normalized purity … pH 4” value is “A (A = >90%)”; the “Normalized purity … pH 6” value is “A (A = >90%)”; the “Normalized purity … pH 7.5” value is given as “A (A = >90%)”; the “Normalized purity … pH 9” value is recorded as “A (A = >90%)”. Besides, the EC50 in data set [2] is 0.13 nM. In data set [3], the EC50 is 0.28 nM.

As for `CC[C@H](C)[C@@H](C(=O)N[C@@H](CC(C)C)C(=O)N[C@@H](CO)C(=O)N[C@@H](CO)C(=O)N[C@H](C(=O)N[C@@H](CCC(=O)O)C(=O)N[C@H](C(=O)NCC(=O)N[C@@H](CO)C(=O)N[C@@H](CC(N)=O)C(=O)N[C@H](C(=O)N1CCC[C@H]1C(N)=O)[C@@H](C)O)C(C)C)[C@@H](C)O)N(C)C(=O)[C@H](C)NC(=O)CN(C)C(=O)[C@H](Cc1ccccc1)NC(=O)[C@H](CO)NC(=O)[C@H](CO)NC(=O)[C@H](CCCNC(=N)N)NC(=O)[C@H](CCC(N)=O)NC(=O)[C@H](CC(C)C)NC(=O)[C@H](Cc1ccccc1)NC(=O)[C@H](Cc1c[nH]cn1)NC(=O)[C@H](C)NC(=O)[C@H](CC(C)C)NC(=O)[C@H](CCCNC(=N)N)NC(=O)[C@H](CC(=O)O)NC(=O)[C@@H](NC(=O)[C@H](C)NC(=O)[C@@H]1CSSC[C@H](NC(=O)[C@H](CCCNC(=N)N)NC(=O)CC[C@H](NC(=O)CCCCCCCCCCCCCCCCCCC(=O)O)C(=O)O)C(=O)N[C@@H](CCC(N)=O)C(=O)N[C@@H]([C@@H](C)O)C(=O)N[C@@H](C)C(=O)N[C@@H]([C@@H](C)O)C(=O)N1)[C@@H](C)O` [Compound 92, [19CD]-isoGlu-R-C( )-QTAT-C( )-ATDRLAHFLQRSSF-Gly(Me)-A-Ile(Me)-LSSTEVGSNTP-NH2] ({C20 diacid-γGlu}-RCQTATCATDRLAHFLQRSSF[Sar]A[NMeI]LSSTEVGSNTP-NH2; disulfide 2-7), in data set [1], the “Normalized purity … pH 4” value is on record as “A (A = >90%)”; the “Normalized purity … pH 6” value was “A (A = >90%)”; the “Normalized purity … pH 7.5” value is “A (A = >90%)”; the “Normalized purity … pH 9” value is on record as “A (A = >90%)”. Further, the EC50 in data set [2] amounted to 0.1 nM. In addition, in data set [3], the concentration giving a half-maximal response (EC50) was determined as 0.22 nM.

The record behind these values is US20210115104A1, “AMYLIN ANALOGUES” (Zealand Pharma A/S, priority 2015, published 2021).
